According to ChEMBL document CHEMBL4613209, “Quinolone hybrids and their anti-cancer activities: An overview” (Eur J Med Chem, 2019):

Tests used:
Format in all cases: functional, cell-based
CAPAN-1 = test: Cytotoxicity against human Capan1 cells assessed as reduction in cell viability by MTT assay
SMMC-7721 = test: Cytotoxicity against human SMMC7721 cells assessed as reduction in cell viability by MTT assay
Hep 3B2 = test: Cytotoxicity against human Hep3B cells assessed as reduction in cell viability by MTT assay
HL-60 = test: Cytotoxicity against human HL60 cells assessed as reduction in cell viability by MTT assay
L1210 = test: Cytotoxicity against mouse L1210 cells assessed as reduction in cell viability by MTT assay

SMILES	IC50 (CAPAN-1)	IC50 (SMMC-7721)	IC50 (Hep 3B2)	IC50 (HL-60)	IC50 (L1210)
CCn1cc(-c2nnc(SCc3nnc(-c4ccc(Cl)cc4)o3)[nH]2)c(=O)c2cc(F)c(N3CCN(C)CC3)cc21	3.8 to 35.2 µM	3.8 to 35.2 µM	3.8 to 35.2 µM	3.8 to 35.2 µM	3.8 to 35.2 µM
CCn1cc(-c2nc(SCc3nnc(-c4cccc(C)c4)o3)n(CN(C)C)n2)c(=O)c2cc(F)c(N3CCN(C)CC3)cc21	1.5 to 24.5 µM	1.5 to 24.5 µM	1.5 to 24.5 µM	1.5 to 24.5 µM	1.5 to 24.5 µM
CN1CCN(c2cc3c(cc2F)c(=O)c(-c2nnc(SCc4nnc(-c5ccc(Cl)cc5)o4)o2)cn3C2CC2)CC1	–	2.4 to 32.4 µM	–	2.4 to 32.4 µM	2.4 to 32.4 µM
CC1COc2c(N3CCN(C)CC3)c(F)cc3c(=O)c(-c4nc5scc(-c6ccccc6O)n5n4)cn1c23 (configuration not stated)	3.6 to 56.8 µM	3.6 to 56.8 µM	3.6 to 56.8 µM	3.6 to 56.8 µM	3.6 to 56.8 µM
COc1ccc(-c2csc3nc(-c4cn5c6c(c(N7CCN(C)CC7)c(F)cc6c4=O)OCC5C)nn23)cc1OC (configuration not stated)	35.7 to 53.6 µM	35.7 to 53.6 µM	35.7 to 53.6 µM	35.7 to 53.6 µM	35.7 to 53.6 µM
CCn1cc(-c2nc3scc(-c4ccc(O)cc4)n3n2)c(=O)c2cc(F)c(N3CCN(C)CC3)cc21	3.6 to 56.8 µM	3.6 to 56.8 µM	3.6 to 56.8 µM	3.6 to 56.8 µM	3.6 to 56.8 µM
CCn1cc(-c2nnc(SCc3nnc(-c4ccccc4OC)o3)[nH]2)c(=O)c2cc(F)c(N3CCN(C)CC3)cc21	3.8 to 35.2 µM	3.8 to 35.2 µM	3.8 to 35.2 µM	3.8 to 35.2 µM	3.8 to 35.2 µM
COc1cc(-c2csc3nc(-c4cn5c6c(c(N7CCN(C)CC7)c(F)cc6c4=O)OCC5C)nn23)ccc1O (configuration not stated)	3.6 to 56.8 µM	3.6 to 56.8 µM	3.6 to 56.8 µM	3.6 to 56.8 µM	3.6 to 56.8 µM
CCn1cc(-c2nnc(SCc3nnc(-c4ccc(OC)cc4)o3)[nH]2)c(=O)c2cc(F)c(N3CCN(C)CC3)cc21	3.8 to 35.2 µM	3.8 to 35.2 µM	3.8 to 35.2 µM	3.8 to 35.2 µM	3.8 to 35.2 µM
Cc1ccc(-c2nnc(CSc3nnc(-c4cn5c6c(c(N7CCN(C)CC7)c(F)cc6c4=O)OCC5C)o3)o2)cc1 (configuration not stated)	–	5.7 to 24.7 µM	–	5.7 to 24.7 µM	5.7 to 24.7 µM
CCn1cc(-c2nc(SCc3nnc(-c4cc(OC)c(OC)c(OC)c4)o3)n(CN(C)C)n2)c(=O)c2cc(F)c(N3CCN(C)CC3)cc21	1.5 to 24.5 µM	1.5 to 24.5 µM	1.5 to 24.5 µM	1.5 to 24.5 µM	1.5 to 24.5 µM
COc1ccc(-c2csc3nc(-c4cn5c6c(c(N7CCN(C)CC7)c(F)cc6c4=O)OCC5C)nn23)cc1 (configuration not stated)	26.7 to 35.7 µM	26.7 to 35.7 µM	26.7 to 35.7 µM	26.7 to 35.7 µM	26.7 to 35.7 µM
CC1COc2c(N3CCN(C)CC3)c(F)cc3c(=O)c(-c4nc5scc(-c6ccc([N+](=O)[O-])cc6)n5n4)cn1c23 (configuration not stated)	3.6 to 56.8 µM	3.6 to 56.8 µM	3.6 to 56.8 µM	3.6 to 56.8 µM	3.6 to 56.8 µM
CN1CCN(c2cc3c(cc2F)c(=O)c(-c2nnc(SCc4nnc(-c5ccc([N+](=O)[O-])cc5)o4)o2)cn3C2CC2)CC1	–	2.4 to 32.4 µM	–	2.4 to 32.4 µM	2.4 to 32.4 µM
CCn1cc(-c2nnc(SCc3nnc(-c4cc(OC)c(OC)c(OC)c4)o3)[nH]2)c(=O)c2cc(F)c(N3CCN(C)CC3)cc21	3.8 to 35.2 µM	3.8 to 35.2 µM	3.8 to 35.2 µM	3.8 to 35.2 µM	3.8 to 35.2 µM
Cc1ccc(-c2nnc(CSc3nnc(-c4cn(C5CC5)c5cc(N6CCN(C)CC6)c(F)cc5c4=O)o3)o2)cc1	–	2.4 to 32.4 µM	–	2.4 to 32.4 µM	2.4 to 32.4 µM
CCn1cc(-c2nnc(SCc3nnc(-c4ccccc4)o3)[nH]2)c(=O)c2cc(F)c(N3CCN(C)CC3)cc21	3.8 to 35.2 µM	3.8 to 35.2 µM	3.8 to 35.2 µM	3.8 to 35.2 µM	3.8 to 35.2 µM

SMILES	IC50 (CAPAN-1)	IC50 (SMMC-7721)	IC50 (Hep 3B2)	IC50 (HL-60)	IC50 (L1210)
Cc1ccc(-c2csc3nc(-c4cn(C5CC5)c5cc(N6CCN(C)CC6)c(F)cc5c4=O)nn23)cc1	3.6 to 56.8 µM	3.6 to 56.8 µM	3.6 to 56.8 µM	3.6 to 56.8 µM	3.6 to 56.8 µM
CCn1cc(-c2nc(SCc3nnc(-c4ccccc4)o3)n(CN(C)C)n2)c(=O)c2cc(F)c(N3CCN(C)CC3)cc21	1.5 to 24.5 µM	1.5 to 24.5 µM	1.5 to 24.5 µM	1.5 to 24.5 µM	1.5 to 24.5 µM
CCn1cc(-c2nnc(SCc3nnc(-c4ccc(OC)c(OC)c4)o3)[nH]2)c(=O)c2cc(F)c(N3CCN(C)CC3)cc21	3.8 to 35.2 µM	3.8 to 35.2 µM	3.8 to 35.2 µM	3.8 to 35.2 µM	3.8 to 35.2 µM
COc1cc(-c2nnc(CSc3nnc(-c4cn5c6c(c(N7CCN(C)CC7)c(F)cc6c4=O)OCC5C)o3)o2)cc(OC)c1OC (configuration not stated)	–	5.7 to 24.7 µM	–	5.7 to 24.7 µM	5.7 to 24.7 µM
CCn1cc(-c2nc3scc(-c4ccc([N+](=O)[O-])cc4)n3n2)c(=O)c2cc(F)c(N3CCN(C)CC3)cc21	3.6 to 56.8 µM	3.6 to 56.8 µM	3.6 to 56.8 µM	3.6 to 56.8 µM	3.6 to 56.8 µM
CCn1cc(-c2nc3scc(-c4ccc(F)cc4)n3n2)c(=O)c2cc(F)c(N3CCN(C)CC3)cc21	3.6 to 56.8 µM	3.6 to 56.8 µM	3.6 to 56.8 µM	3.6 to 56.8 µM	3.6 to 56.8 µM
CCn1cc(-c2nnc(SCc3nnc(-c4cccc(C)c4)o3)[nH]2)c(=O)c2cc(F)c(N3CCN(C)CC3)cc21	3.8 to 35.2 µM	3.8 to 35.2 µM	3.8 to 35.2 µM	3.8 to 35.2 µM	3.8 to 35.2 µM
CC1COc2c(N3CCN(C)CC3)c(F)cc3c(=O)c(-c4nc5scc(-c6ccccc6)n5n4)cn1c23 (configuration not stated)	3.6 to 56.8 µM	3.6 to 56.8 µM	3.6 to 56.8 µM	3.6 to 56.8 µM	3.6 to 56.8 µM
CN1CCN(c2cc3c(cc2F)c(=O)c(-c2nc4scc(-c5ccc([N+](=O)[O-])cc5)n4n2)cn3C2CC2)CC1	3.6 to 7.6 µM	–	3.6 to 7.6 µM	3.6 to 7.6 µM	–
CN1CCN(c2cc3c(cc2F)c(=O)c(-c2nnc(SCc4nnc(-c5ccccc5)o4)o2)cn3C2CC2)CC1	–	2.4 to 32.4 µM	–	2.4 to 32.4 µM	2.4 to 32.4 µM
CC1COc2c(N3CCN(C)CC3)c(F)cc3c(=O)c(-c4nnc(SCc5nnc(-c6ccc(Cl)cc6)o5)o4)cn1c23 (configuration not stated)	–	5.7 to 24.7 µM	–	5.7 to 24.7 µM	5.7 to 24.7 µM
COc1ccc(-c2nnc(CSc3nnc(-c4cn5c6c(c(N7CCN(C)CC7)c(F)cc6c4=O)OCC5C)o3)o2)cc1 (configuration not stated)	–	5.7 to 24.7 µM	–	5.7 to 24.7 µM	5.7 to 24.7 µM
CC1COc2c(N3CCN(C)CC3)c(F)cc3c(=O)c(-c4nnc(SCc5nnc(-c6ccccc6)o5)o4)cn1c23 (configuration not stated)	–	5.7 to 24.7 µM	–	5.7 to 24.7 µM	5.7 to 24.7 µM
CC1COc2c(N3CCN(C)CC3)c(F)cc3c(=O)c(-c4nnc(SCc5nnc(-c6ccc([N+](=O)[O-])cc6)o5)o4)cn1c23 (configuration not stated)	–	5.7 to 24.7 µM	–	5.7 to 24.7 µM	5.7 to 24.7 µM
COc1ccccc1-c1nnc(CSc2nnc(-c3cn4c5c(c(N6CCN(C)CC6)c(F)cc5c3=O)OCC4C)o2)o1 (configuration not stated)	–	5.7 to 24.7 µM	–	5.7 to 24.7 µM	5.7 to 24.7 µM
COc1cc(-c2nnc(CSc3nnc(-c4cn(C5CC5)c5cc(N6CCN(C)CC6)c(F)cc5c4=O)o3)o2)cc(OC)c1OC	–	2.4 to 32.4 µM	–	2.4 to 32.4 µM	2.4 to 32.4 µM
COc1ccccc1-c1nnc(CSc2nnc(-c3cn(C4CC4)c4cc(N5CCN(C)CC5)c(F)cc4c3=O)o2)o1	–	2.4 to 32.4 µM	–	2.4 to 32.4 µM	2.4 to 32.4 µM
